Paper PMC9647539, “Computational and functional studies of the PI(4,5)P2 binding site of the TRPM3 ion channel reveal interactions with other regulators” (The Journal of Biological Chemistry, 2022)

Columns and labels:
[1] = molecular target: T1, hTRPM3 or its mutant N991A (Homo sapiens, UniProt Q9HCF6, N1016A); test: Excised inside-out patch clamp, relative effect of PI(4)P compared to PI(4,5)P2; assay type: cell-based; conditions: 25 μM diC8 PI(4)P vs 25 μM diC8 PI(4,5)P2, 100 μM PregS in pipette
T1 construct: expressed in transfected cells; host or cells: Xenopus laevis oocytes (excised inside-out patches)
T1 sequence (Q9HCF6 1-1325 isoform Q9HCF6-10 N991A): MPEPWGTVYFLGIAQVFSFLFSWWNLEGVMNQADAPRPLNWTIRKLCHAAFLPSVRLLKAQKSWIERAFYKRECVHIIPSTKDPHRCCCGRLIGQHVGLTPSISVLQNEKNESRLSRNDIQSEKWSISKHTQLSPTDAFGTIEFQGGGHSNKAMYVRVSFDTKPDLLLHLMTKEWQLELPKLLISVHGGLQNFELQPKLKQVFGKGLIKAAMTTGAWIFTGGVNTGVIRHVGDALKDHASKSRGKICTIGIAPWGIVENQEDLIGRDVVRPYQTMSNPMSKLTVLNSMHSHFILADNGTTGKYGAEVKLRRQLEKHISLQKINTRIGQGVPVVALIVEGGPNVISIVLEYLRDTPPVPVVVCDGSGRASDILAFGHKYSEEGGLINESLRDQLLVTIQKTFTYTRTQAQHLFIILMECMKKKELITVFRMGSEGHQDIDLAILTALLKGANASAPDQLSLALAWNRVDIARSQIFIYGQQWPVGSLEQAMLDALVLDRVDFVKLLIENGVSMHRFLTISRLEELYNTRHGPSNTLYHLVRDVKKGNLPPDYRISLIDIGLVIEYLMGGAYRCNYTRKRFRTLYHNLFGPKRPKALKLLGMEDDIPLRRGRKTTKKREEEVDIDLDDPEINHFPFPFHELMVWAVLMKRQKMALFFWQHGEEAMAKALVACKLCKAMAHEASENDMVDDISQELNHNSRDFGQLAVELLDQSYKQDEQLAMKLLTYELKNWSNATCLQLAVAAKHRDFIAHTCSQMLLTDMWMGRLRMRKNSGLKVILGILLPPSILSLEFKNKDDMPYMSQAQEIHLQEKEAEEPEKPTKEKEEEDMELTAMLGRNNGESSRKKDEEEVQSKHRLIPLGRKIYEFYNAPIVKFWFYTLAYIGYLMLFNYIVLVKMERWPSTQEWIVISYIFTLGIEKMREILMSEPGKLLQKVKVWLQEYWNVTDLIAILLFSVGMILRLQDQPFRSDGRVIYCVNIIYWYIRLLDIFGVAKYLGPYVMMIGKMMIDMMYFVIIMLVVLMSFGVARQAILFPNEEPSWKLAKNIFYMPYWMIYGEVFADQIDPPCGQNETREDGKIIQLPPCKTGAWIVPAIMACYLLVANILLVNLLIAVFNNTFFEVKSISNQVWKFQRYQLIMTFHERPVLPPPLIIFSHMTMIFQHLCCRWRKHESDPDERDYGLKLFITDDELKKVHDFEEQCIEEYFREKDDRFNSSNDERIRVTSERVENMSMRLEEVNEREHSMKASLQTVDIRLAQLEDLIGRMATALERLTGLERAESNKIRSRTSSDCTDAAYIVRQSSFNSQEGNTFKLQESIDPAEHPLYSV
Procedure: Oocytes were placed in a recording chamber filled with bath solution, which contained 97 mM KCl, 5 mM EGTA, 10 mM Hepes, pH 7.4. Before starting measurements, the vitelline layer was carefully removed with forceps without damaging the oocyte. Then a giga-ohm seal was formed using a borosilicate glass pipette (World Precision Instruments) with resistance from 0.8 to 1 MΩ. The pipette was filled with a solution containing 97 mM NaCl, 2 mM KCl, 1 mM MgCl2, 5 mM Hepes, and 100 μM PregS at pH 7.4. Currents were measured by an Axopatch 200B amplifier and analyzed with the pClamp 9.0 software. Compounds were dissolved in the bath solution and delivered to the inner side of cell membrane by a custom-made gravity-driven perfusion system. Either 25 μM PI(4,5)P2, 25 μM PI(4)P, or 10 μM AASt PI(4,5)P2 was applied in these experiments to reactivate TRPM3. At the end of every recording, 30 μg/ml Poly-Lys (Poly-K) was applied.

[2] = tested on: Rat TRPM8 or its mutants; test: Menthol concentration dependence, TEVC in Xenopus oocytes; assay type: cell-based; conditions: 100 mV; R851A and W682Q mutants
Procedure: (§1) To express exogenous proteins, RNA was microinjected into oocytes using a nanoliter-injector system (Warner Instruments). RNA was in vitro transcribed from the linearized pGEMSH vectors, which contained the complementary DNA clones for hTRPM3 ([38]) rat TRPM8, human M2 muscarinic (hM2) receptor, or Gβγ subunits by using the mMessage mMachine T7 Transcription Kit (Thermo Fisher Scientific). […] For coexpression of TRPM3 constructs and Gβ1γ2 subunits, 40 ng of TRPM3 was coinjected with 5 ng Gβ1 and 5 ng Gγ2. In the case of coexpressing TRPM3 and hM2 receptors, these two were injected at 1:1 ratio, 40 ng each. […]
(§2) Oocytes were placed in extracellular solution, which contained 97 mM NaCl, 2 mM KCl, 1 mM MgCl2, and 5 mM Hepes, pH 7.4. Currents were measured with a protocol consisting a voltage step from the 0 mV holding potential to −100 mV, followed by a ramp to 100 mV once every 0.5 s with a GeneClamp 500B amplifier and analyzed with the pClamp 9.0 software (Molecular Devices). Currents were recorded by thin wall glass pipettes that contained inner filament and were filled with 1% agarose in 3 M KCl. […] For wortmannin experiments specifically, PregS, or menthol-induced currents were measured, then the same oocyte was incubated with 35 μM wortmannin for 2 h, and currents were measured again using the same protocol. […]

[3] = tested on: mouse TRPM3α2 (mTRPM3α2) or its mutant N993A; test: Whole-cell patch clamp with rapamycin-inducible pseudojanin phosphatase in HEK293 cells; assay type: cell-based; conditions: 100 nM rapamycin
Procedure: Human embryonic kidney 293 cells were purchased from American Type Culture Collection (catalog number: CRL-1573). Human embryonic kidney 293 cells were cultured in minimum essential medium supplemented with 10% fetal bovine serum and 100 IU/ml penicillin plus 100 μg/ml streptomycin. Cells were incubated in 5% CO2 at 37 °C. Cells were tested to confirm that they were not infected by mycoplasma. Cells were used up to 25 passages and then discarded. Cells were transiently transfected with complementary DNA encoding different TRPM3 constructs (200–400 ng) using the Effectene reagent (Qiagen). mTRPM3α2 and its mutant were cloned into the bicistronic pCAGGS/IRES-GFP vector. The components of rapamycin-inducible pseudojanin phosphatases ([40]) were cotransfected with mTRPM3α2 at 1:1 ratio.
After 24 h of transfection, cells were plated on poly-D-lysine–coated 12 mm cover slips. Experiments were performed 48 to 72 h after transfection. […] After formation of gigaohm-resistance seals, the whole cell configuration was established, and currents were recorded by applying a ramp protocol once every 1 s. […] Data were collected and analyzed with the pClamp10.6 (Clampex) acquisition software (Molecular Devices) and further analyzed and plotted with Prism 9 (GraphPad by Dotmatics). […]

[4] = tested on: Rat TRPM8 or its mutants; test: Wortmannin inhibition of menthol-induced currents (PI(4,5)P2 depletion), TEVC in Xenopus oocytes; assay type: cell-based; conditions: 35 μM wortmannin 2 h; 500 μM menthol; 100 mV; R851Q and W682Q mutants
Procedure: as §1, §2

[5] = tested on: Human TRPM3_1325 splice variant or its mutants; design: method as in PMID 26123195; conditions: 35 nM wortmannin (selectively inhibits PI3K); cited from earlier work
[6] = tested on: Human TRPM3_1325 splice variant or its mutants; test: Wortmannin inhibition of PregS-induced currents (PI(4,5)P2 depletion), TEVC in Xenopus oocytes; assay type: cell-based; conditions: 35 μM wortmannin 2 h; for inhibition of PregS-induced currents after wortmannin treatment, compared with WT TRPM3: 100 mV; for inhibition of PregS-induced currents after wortmannin treatment, WT vs disease mutants: V990M and P1090Q
Procedure: Next, we mutated the predicted PI(4,5)P2-interacting residues in TRPM3 and tested the effects of the mutations on sensitivity to inhibition by decreasing PI(4,5)P2 levels. We expressed the WT and mutant channels in Xenopus oocytes and performed two-electrode voltage clamp (TEVC) experiments. We stimulated channel activity with 50 μM PregS and measured current amplitudes, then incubated the oocytes with 35 μM wortmannin for 2 h, and measured PregS-induced currents in the same oocytes (Fig. 3, A and B). Wortmannin at this concentration inhibits phosphatidylinositol 4-kinases and has been used to inhibit the activity of PI(4,5)P2-dependent ion channels ([39]). […] Mutating a PI(4,5)P2-interacting residue is expected to increase inhibition by high concentrations of wortmannin ([39]). […] We also generated two additional mutations in the TRP domain in residues that are not in contact with PI(4,5)P2, K1128Q and R1141Q.
To express exogenous proteins, RNA was microinjected into oocytes using a nanoliter-injector system (Warner Instruments). RNA was in vitro transcribed from the linearized pGEMSH vectors, which contained the complementary DNA clones for hTRPM3 ([38]) rat TRPM8, human M2 muscarinic (hM2) receptor, or Gβγ subunits by using the mMessage mMachine T7 Transcription Kit (Thermo Fisher Scientific). […] For coexpression of TRPM3 constructs and Gβ1γ2 subunits, 40 ng of TRPM3 was coinjected with 5 ng Gβ1 and 5 ng Gγ2. In the case of coexpressing TRPM3 and hM2 receptors, these two were injected at 1:1 ratio, 40 ng each. Oocytes were used for electrophysiological experiments after 48 to 72 h incubation at 16 °C after RNA injection.
Oocytes were placed in extracellular solution, which contained 97 mM NaCl, 2 mM KCl, 1 mM MgCl2, and 5 mM Hepes, pH 7.4. Currents were measured with a protocol consisting a voltage step from the 0 mV holding potential to −100 mV, followed by a ramp to 100 mV once every 0.5 s with a GeneClamp 500B amplifier and analyzed with the pClamp 9.0 software (Molecular Devices). Currents were recorded by thin wall glass pipettes that contained inner filament and were filled with 1% agarose in 3 M KCl. In all TEVC experiments, different concentrations of PregS were applied to activate TRPM3 channels, and various concentrations of menthol were used to trigger responses of TRPM8 channels. The hM2 receptor was activated by 5 μM acetylcholine. For wortmannin experiments specifically, PregS, or menthol-induced currents were measured, then the same oocyte was incubated with 35 μM wortmannin for 2 h, and currents were measured again using the same protocol. In the bar graphs in Figure 3, the individual panels show experiments that were performed on the same day.

[7] = tested on: TRPM3_1325 splice variant or its mutants; test: PregS concentration dependence, TEVC in Xenopus oocytes; assay type: cell-based, human; conditions: 100 mV; N991A and K992A mutants
Procedure: as §1, §2

[8] = tested on: hTRPM3 V990M; design: method as in PMID 32343227; conditions: V990M mutant; read-out: EC50 concentration of PregS; cited from earlier work
[9] = tested on: hTRPM3; design: method as in PMID 32343227; conditions: hTRPM3 WT; read-out: EC50 concentration of PregS; cited from earlier work
[10] = tested on: hTRPM3 P1090Q; design: method as in PMID 32343227; conditions: P1090Q mutant; read-out: EC50 concentration of PregS; cited from earlier work

In the case of `CCCCCCCC(=O)OC[C@H](COP(=O)(O)O[C@H]1[C@H](O)[C@@H](O)[C@H](OP(=O)(O)O)[C@@H](O)[C@H]1O)OC(=O)CCCCCCC` [PI(4)P], the “relative effect of PI(4)P compared with PI(4,5)P2” value [1] is reported as “did not change”.

In the case of `CC1CCC(C(C)C)C(O)C1` (centres unmarked) [menthol], the “menthol dose response, compared with WT TRPM8” value [2] is reported as “right shifted”.

For `CO[C@H]1C[C@@H]2CC[C@@H](C)[C@@](O)(O2)C(=O)C(=O)N2CCCC[C@H]2C(=O)O[C@H]([C@H](C)C[C@@H]2CC[C@@H](O)[C@H](OC)C2)CC(=O)[C@H](C)/C=C(\C)[C@@H](O)[C@@H](OC)C(=O)[C@H](C)C[C@H](C)/C=C/C=C/C=C/1C` [rapamycin], the “inhibition by rapamycin (PI(4,5)P2 depletion), N993A compared with WT mTRPM3α2” value ([3]; currents induced by 25 μM PregS plus 10 μM clotrimazole) was “significantly larger inhibition” and the “inhibition by rapamycin (PI(4,5)P2 depletion), N993A compared with WT mTRPM3α2” value ([3]; currents stimulated with 25 μM PregS) was “significantly higher inhibition”.

For `COC[C@H]1OC(=O)c2coc3c2[C@@]1(C)C1=C(C3=O)[C@@H]2CCC(=O)[C@@]2(C)C[C@H]1OC(C)=O` [wortmannin], the “inhibition of menthol-induced currents by wortmannin, compared with WT TRPM8” value [4] is listed as “significantly higher level of inhibition”, the “inhibition of TRPM3 by wortmannin” value [5] is listed as “did not inhibit TRPM3” and the “inhibition of PregS-induced currents after wortmannin treatment, compared with WT TRPM3” value ([6]; 50 μM PregS, R1141Q mutant) is listed as “small but significant increase”. The “inhibition of PregS-induced currents after wortmannin treatment, compared with WT TRPM3” value ([6]; 50 μM PregS, mutants W761F, N991A, K992A and R1131Q) was “significantly higher inhibition”, the “inhibition of PregS-induced currents after wortmannin treatment, WT vs disease mutants” value ([6]; 50 μM PregS) was “inhibited to a similar extent” and the “inhibition of PregS-induced currents after wortmannin treatment, WT vs disease mutants” value ([6]; PregS at respective EC50 (17, 0.6, 7 μM)) was “inhibited to a similar extent to WT channels”.

In the case of pregnenolone sulfate [PregS], the “PregS dose response, compared with WT TRPM3” value [7] is given as “shifted the PregS dose response to the right”, the EC50 [8] is given as 0.6 µM and the EC50 [9] is given as 17 µM. The EC50 [10] was 7 µM.
